Measured values reported in US20260042762A1 (Kymera Therapeutics, Inc., priority 2018, published 2026).

Molecular target: T1, MerTK (Homo sapiens, UniProt Q12866)
T1 construct: endogenous in cells; host or cells: Jurkat cells
T1 sequence (Q12866 21-999): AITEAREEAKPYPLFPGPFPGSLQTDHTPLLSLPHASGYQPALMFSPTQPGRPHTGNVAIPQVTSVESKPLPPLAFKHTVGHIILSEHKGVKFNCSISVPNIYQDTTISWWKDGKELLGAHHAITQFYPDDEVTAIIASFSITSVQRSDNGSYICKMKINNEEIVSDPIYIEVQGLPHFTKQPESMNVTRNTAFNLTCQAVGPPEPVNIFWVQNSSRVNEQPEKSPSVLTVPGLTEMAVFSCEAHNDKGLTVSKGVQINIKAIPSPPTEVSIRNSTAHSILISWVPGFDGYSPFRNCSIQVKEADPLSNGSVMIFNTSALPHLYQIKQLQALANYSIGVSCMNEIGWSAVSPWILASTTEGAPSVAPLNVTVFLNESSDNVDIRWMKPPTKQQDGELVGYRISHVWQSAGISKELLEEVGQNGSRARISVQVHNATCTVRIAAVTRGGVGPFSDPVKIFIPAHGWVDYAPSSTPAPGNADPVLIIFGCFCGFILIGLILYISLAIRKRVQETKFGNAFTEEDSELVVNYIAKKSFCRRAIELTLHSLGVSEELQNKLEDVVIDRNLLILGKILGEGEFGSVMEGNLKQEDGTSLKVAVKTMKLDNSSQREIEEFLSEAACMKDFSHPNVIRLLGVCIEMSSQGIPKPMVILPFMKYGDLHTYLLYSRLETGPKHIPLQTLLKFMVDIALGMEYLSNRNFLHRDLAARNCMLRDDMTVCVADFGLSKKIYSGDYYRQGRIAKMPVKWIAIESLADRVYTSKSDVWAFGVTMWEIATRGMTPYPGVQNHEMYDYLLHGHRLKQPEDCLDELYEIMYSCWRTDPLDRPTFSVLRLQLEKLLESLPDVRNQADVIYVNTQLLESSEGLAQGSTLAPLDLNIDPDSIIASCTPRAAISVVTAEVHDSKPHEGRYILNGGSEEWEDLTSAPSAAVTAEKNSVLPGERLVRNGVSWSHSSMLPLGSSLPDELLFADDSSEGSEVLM
Assay: MerTk degradation in Jurkat cells (Western blot)
Assay type: cell-based
Settings: Jurkat, 4 h, 0.001-1 μM, 4 hour-incubation at 37° C., read-out: Jurkat Max % MerTK Degradation
Procedure, shortened: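 Jurkat cells treated 4 h at 37 °C with compound at 0.001-1 μM final. RIPA lysates quantified by BCA, then MerTK probed by Western blot against actin loading control with IR-dye secondaries and Odyssey imaging.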

CN1CCN(Cc2ccc(-c3ccc(CO[C@H]4CCC[C@@H]4NC(=O)c4cc(-c5cnn(CCCc6cccc7c6n(C)c(=O)n7C6CCC(=O)NC6=O)c5)cnc4N)cc3)cc2)CC1 (stereo partly drawn) [I-183, 2-Amino-5-(1-[3-[1-(2,6-dioxopiperidin-3-yl)-3-methyl-2-oxo-1,3-benzodiazol-4-yl]propyl]pyrazol-4-yl)-N-[(1S,2S)-2-([4-[(4-methylpiperazin-1-yl)methyl]-[1,1-biphenyl]-4-yl]methoxy)cyclopentyl]pyridine-3-carboxamide]
Dmax: < 20%

C[C@H]1CN(Cc2ccc(-c3cn([C@H]4CC[C@H](O)CC4)c4nc(NCCC(F)(F)F)ncc34)cc2)CCN1CCCOCCCc1ccc2c(c1)n(C)c(=O)n2C1CCC(=O)NC1=O (stereo partly drawn) [I-106, 3-[3-methyl-5-(3-[3-[(2S)-2-methyl-4-[(4-[7-[trans-4-hydroxycyclohexy1]-2-[(3,3,3-trifluoropropyl)amino]-7H-pyrrolo[2,3-d]pyrimidin-5-yl]phenyl)methyl]piperazin-1-yl]propoxy]propyl)-2-oxo-2,3-dihydro-1H-1,3-benzodiazol-1-yl]piperidine-2,6-dione; formic acid]
Dmax: > 50%

Cc1ncsc1-c1ccc(CNC(=O)[C@@H]2C[C@@H](O)CN2C(=O)[C@@H](NC(=O)C2(F)CC2)C(C)(C)C)c(OCCOCCOCCOCCN2CCN(Cc3ccc(-c4cn([C@H]5CC[C@H](O)CC5)c5nc(NCCC(F)(F)F)ncc45)cc3)CC2)c1 [I-190]
Dmax: > 50%

COc1ccc(Nc2nc(Nc3cc(OCCOCCOCCOCCOCCNc4cccc5c4C(=O)N(C4CCC(=O)NC4=O)C5=O)c(OC)cc3C)ncc2Cl)c(NS(C)(=O)=O)c1 (centres unmarked) [I-231]
Dmax: < 20%

Cc1ncsc1-c1ccc(CNC(=O)[C@@H]2C[C@@H](O)CN2C(=O)[C@@H](NC(=O)COCCOCCOCCOCCn2ccc3c(Nc4nc(N[C@@H]5CCCC[C@@H]5N)nnc4C(N)=O)cccc32)C(C)(C)C)cc1 [I-229]
Dmax: < 20%

O=C1CC[C@H](n2c3ccc(CCCOCCOCCN4CCN(Cc5ccc(-c6cn([C@H]7CC[C@H](O)CC7)c7nc(NCCC(F)(F)F)ncc67)cc5)CC4)cc3c3cccnc32)C(=O)N1 [I-125, 3-(6-[3-[2-(2-[4-[(4-[7-[trans-4-hydroxycyclohexyl]-2-[(3,3,3-trifluoropropyl)amino]-7H-pyrrolo[2,3-d]pyrimidin-5-yl]phenyl)methyl]piperazin-1-yl]ethoxy)ethoxy]propyl]-9H-pyrido[2,3-b]indol-9-y1)piperidine-2,6-dione]
Dmax: > 50%

C[C@H](Nc1ncc2c(-c3ccc(CN4CCN(CCCCOCCCc5ccc6c(c5)n(C)c(=O)n6C5CCC(=O)NC5=O)CC4)cc3)cn([C@H]3CC[C@H](O)CC3)c2n1)C(F)F (some centres unmarked) [I-185]
Dmax: > 50%

CC(c1ccc(-c2cn([C@H]3CC[C@H](O)CC3)c3nc(NCCC(F)(F)F)ncc23)cc1)N1CCN(CCCCOCCCc2ccc3c(c2)n(C)c(=O)n3C2CCC(=O)NC2=O)CC1 (stereo partly drawn) [I-81, 3-[3-methyl-2-oxo-5-[3-(4-[4-[1-(4-[7-[trans-4-hydroxycyclohexyl]-2-[(3,3,3-trifluoropropyl)amino]-7H-pyrrolo[2,3-d]pyrimidin-5-yl]phenyl)ethyl]piperazin-1-y1]butoxy)propyl]-2,3-dihydro-1H-1,3-benzodiazol-1-yl]piperidine-2,6-dione]
Dmax: > 50%

Cn1c(=O)n([C@H]2CCC(=O)NC2=O)c2ccc(CCCOCCOCCOCCN3CCN(Cc4ccc(-c5cn([C@H]6CC[C@H](O)CC6)c6nc(NCCC(F)(F)F)ncc56)cc4)CC3)cc21 [I-55, 3-[3-methyl-2-oxo-5-(3-[2-[2-(2-[4-[(4-[7-[trans-4-hydroxycyclohexyl]-2-[(3,3,3-trifluoropropyl)amino]-7H-pyrrolo[2,3-d]pyrimidin-5-yl]phenyl)methyl]piperazin-1-yl]ethoxy)ethoxy]ethoxy]propyl)-2,3-dihydro-1H-1,3-benzodiazol-1-yl]piperidine-2,6-dione]
Dmax: > 50%

Cn1c(=O)n([C@H]2CCC(=O)NC2=O)c2cccc(CCCOCCCN3CCN(Cc4ccc(-c5cn([C@H]6CC[C@H](O)CC6)c6nc(NCCC(F)(F)F)ncc56)cc4)CC3)c21 [I-138, 3-[3-methyl-2-oxo-4-[3-(3-[4-[(4-[7-[trans-4-hydroxycyclohexy1]-2-[(3,3,3-trifluoropropyl)amino]pyrrolo[2,3-d]pyrimidin-5-yl]phenyl)methyl]piperazin-1-yl]propoxy)propyl]-1,3-benzodiazol-1-yl]piperidine-2,6-dione]
Dmax: > 50%

Cn1c(=O)n([C@H]2CCC(=O)NC2=O)c2ccc(CCCC3CN(C4CCN(Cc5ccc(-c6cn([C@H]7CC[C@H](O)CC7)c7nc(NCCC(F)(F)F)ncc67)cc5)CC4)C3)cc21 [I-156, 3-[3-methyl-2-oxo-5-[3-(1-[1-[(4-[7-[trans-4-hydroxycyclohexy1]-2-[(3,3,3-trifluoropropyl)amino]pyrrolo[2,3-d]pyrimidin-5-y1]phenyl)methyl]piperidin-4-yl]azetidin-3-yl)propyl]-1,3-benzodiazol-1-yl]piperidine-2,6-dione; formic acid]
Dmax: > 50%

O=C1CC[C@H](n2c3ccccc3c3c(CCCOCCOCCN4CCN(Cc5ccc(-c6cn([C@H]7CC[C@H](O)CC7)c7nc(NCCC(F)(F)F)ncc67)cc5)CC4)ccnc32)C(=O)N1 [I-126, 3-(4-[3-[2-(2-[4-[(4-[7-[trans-4-hydroxycyclohexyl]-2-[(3,3,3-trifluoropropyl)amino]-7H-pyrrolo[2,3-d]pyrimidin-5-yl]phenyl)methyl]piperazin-1-yl]ethoxy)ethoxy]propyl]-9H-pyrido[2,3-b]indol-9-yl)piperidine-2,6-dione]
Dmax: > 50%

Cc1ncsc1-c1ccc(CNC(=O)[C@@H]2C[C@@H](O)CN2C(=O)[C@@H](NC(=O)C2(F)CC2)C(C)(C)C)c(OCCCCN2CCN(Cc3ccc(-c4cn([C@H]5CC[C@H](O)CC5)c5nc(NCCC(F)(F)F)ncc45)cc3)CC2)c1 [I-179, (2S,4R)-1-[(2S)-2-[(1-fluorocyclopropyl)formamido]-3,3-dimethylbutanoyl]-4-hydroxy-N-[[4-(4-methyl-1,3-thiazol-5-yl)-2-(4-[4-[(4-[7-[trans-4-hydroxycyclohexyl]-2-[(3,3,3-trifluoropropyl)amino]pyrrolo[2,3-d]pyrimidin-5-yl]phenyl)methyl]piperazin-1-yl]butoxy)phenyl]methyl]pyrrolidine-2-carboxamide]
Dmax: 20 to 50%

Cn1c(=O)n([C@H]2CCC(=O)NC2=O)c2cccc(COCCN3CCN(Cc4ccc(-c5cn([C@H]6CC[C@H](O)CC6)c6nc(NCCC(F)(F)F)ncc56)cc4)CC3)c21 [I-152, 3-[3-methyl-2-oxo-4-[(2-[4-[(4-[7-[trans-4-hydroxycyclohexyl]-2-[(3,3,3-trifluoropropyl)amino]pyrrolo[2,3-d]pyrimidin-5-yl]phenyl)methyl]piperazin-1-yl]ethoxy)methyl]-1,3-benzodiazol-1-yl]piperidine-2,6-dione; bis(formic acid)]
Dmax: > 50%

Cn1c(=O)n([C@H]2CCC(=O)NC2=O)c2cccc(CN3CCC(CC4CCN(Cc5ccc(-c6cn([C@H]7CC[C@H](O)CC7)c7nc(NCCC(F)(F)F)ncc67)cc5)CC4)CC3)c21 [I-159, 3-(3-methyl-2-oxo-4-[[4-([1-[(4-[7-[trans-4-hydroxycyclohexy1]-2-[(3,3,3-trifluoropropyl)amino]pyrrolo[2,3-d]pyrimidin-5-y1]phenyl)methyl]piperidin-4-y1]methyl)piperidin-1-yl]methyl]-1,3-benzodiazol-1-yl)piperidine-2,6-dione]
Dmax: > 50%

CN1CCN(Cc2ccc(-c3ccc(CO[C@H]4CCC[C@@H]4NC(=O)c4cc(-c5cnn(CCOCCOCCOCCCc6ccc7c(c6)n(C)c(=O)n7C6CCC(=O)NC6=O)c5)cnc4N)cc3)cc2)CC1 (stereo partly drawn) [I-203, 2-Amino-5-(1-[2-[2-(2-[3-[1-(2,6-dioxopiperidin-3-yl)-3-methyl-2-oxo-1,3-benzodiazol-5-yl]propoxy]ethoxy)ethoxy]ethyl]pyrazol-4-yl)-N-[(1S,2S)-2-([4-[(4-methylpiperazin-1-yl)methyl]-[1,1-biphenyl]-4-yl]methoxy)cyclopentyl]pyridine-3-carboxamide]
Dmax: 20 to 50%

Cn1c(=O)n([C@H]2CCC(=O)NC2=O)c2ccc(CCCN3CC(CCN4CCN(Cc5ccc(-c6cn([C@H]7CC[C@H](O)CC7)c7nc(NCCC(F)(F)F)ncc67)cc5)CC4)C3)cc21 [I-112, 3-(3-methyl-2-oxo-5-[3-[3-(2-[4-[(4-[7-[trans-4-hydroxycyclohexy1]-2-[(3,3,3-trifluoropropyl)amino]-7H-pyrrolo[2,3-d]pyrimidin-5-yl]phenyl)methyl]piperazin-1-yl]ethyl)azetidin-1-yl]propyl]-2,3-dihydro-1H-1,3-benzodiazol-1-y1)piperidine-2,6-dione]
Dmax: < 20%
